Reference: PMC10046769, “An Impedimetric Biosensor for Detection of Volatile Organic Compounds in Food” (Biosensors, 2023)

Biological target: T1, pig odorant-binding protein (pOBP) (Sus scrofa, UniProt P81245)
T1 construct: recombinant pOBP, GST tag removed by thrombin; monomer of 157 amino acids
T1 sequence (P81245 1-157): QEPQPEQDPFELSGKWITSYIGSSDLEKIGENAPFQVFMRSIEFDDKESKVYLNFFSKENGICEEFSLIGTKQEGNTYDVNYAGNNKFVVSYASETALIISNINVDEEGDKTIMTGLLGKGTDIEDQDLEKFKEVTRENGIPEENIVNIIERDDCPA
Assay: competitive FRET displacement of 1-AMA; also impedance (EIS) with immobilised pOBP

Kd: 18.5 mM
SMILES: C=CC(O)CCCCC (stereo not shown) [1-octen-3-ol]
